Experimental data published in ChEMBL document CHEMBL1201862, “PubChem BioAssay data set” (2004).
Calls of active or inactive are those of the source.

Key:
[1] = target: Peroxisome proliferator-activated receptor gamma/Nuclear receptor corepressor 2 (Homo sapiens, UniProt P37231+Q9Y618); type: functional
[2] = target: T1, Small ubiquitin-related modifier 1 (Homo sapiens, UniProt P63165); test: inhibitors of SUMO1 partner interactions, dose response, biochemical, FRET (AID 624383); type: functional; details: read-out: IC50_Mean
[3] = target: T1, Small ubiquitin-related modifier 1; test: inhibitors of SUMO1 peptide binding, dose response, biochemical, fluorescence polarization, uHTS hits (AID 624382); type: functional; details: read-out: IC50_Mean
[4] = target: CAAX prenyl protease 2 (Homo sapiens, UniProt Q9Y256); test: human Rce1 protease inhibitors, dose response, biochemical, yeast membranes, quenched-peptide fluorescence, cherry-pick (AID 588849)
[5] = cells
[6] = target: Tyrosyl-DNA phosphodiesterase 2 (Homo sapiens, UniProt O95551); test: human TDP2 enzyme inhibitors, dose response, biochemical, epi absorbance, IC50 (AID 743297)
[7] = target: Photoreceptor-specific nuclear receptor (Homo sapiens, UniProt Q9Y5X4); type: functional;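 also: potency for compounds that break the NR2E3 corepressor complex and count as activators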
[8] = target: T2, CAAX prenyl protease 2 (Saccharomyces cerevisiae S288c, UniProt Q03530); type: biochemical
T2 sequence (Q03530 whole entry): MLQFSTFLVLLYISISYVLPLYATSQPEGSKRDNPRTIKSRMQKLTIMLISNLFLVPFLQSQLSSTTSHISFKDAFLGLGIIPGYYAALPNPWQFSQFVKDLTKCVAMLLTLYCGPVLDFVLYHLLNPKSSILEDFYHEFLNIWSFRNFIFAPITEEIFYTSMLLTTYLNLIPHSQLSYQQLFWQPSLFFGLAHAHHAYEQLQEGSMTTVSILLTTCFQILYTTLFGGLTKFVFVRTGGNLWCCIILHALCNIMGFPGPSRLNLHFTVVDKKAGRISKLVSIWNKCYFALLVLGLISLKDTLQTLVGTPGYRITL

[9] = target: Major prion protein (Homo sapiens, UniProt P04156); type: functional, cell-based
[10] = target: Dual specificity tyrosine-phosphorylation-regulated kinase 1A (Rattus norvegicus, UniProt Q63470); type: biochemical, Homo sapiens
[11] = target: Luciferin 4-monooxygenase (Photinus pyralis, UniProt P08659); test: firefly luciferase enzyme inhibitors, dose response, biochemical, luminescence (AID 1891)
[12] = ADAM10 protease inhibitors, dose response, selectivity assay for ADAM17 exosite inhibitor project, biochemical, FRET peptide substrate, recombinant human ADAM10 (AID 743259);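 also: ADAM10 enzyme cleaving a FRET peptide substrate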
[13] = Luminescence Cell-Based Dose Confirmation HTS to Identify Inhibitors of Platelet Dense Granule Release. [Related pubchem assays: 1663 (Primary HTS), 1678 (Summary of Project)]; type: functional
[14] = target: Disintegrin and metalloproteinase domain-containing protein 17 (Homo sapiens, UniProt P78536); test: exosite inhibitors of ADAM17, dose response, biochemical (AID 743260)
[15] = target: Oxysterols receptor LXR-beta (Homo sapiens, UniProt P55055); type: functional, cell-based;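 also: agonist activity at LXR measured by a cell-based luminescence readout across a dose range, run as a counterscreen for daf-12 agonists; HEK293 cells with Gal4-LXR fusion and GAL4-driven luciferase reporter; potency for activation of Gal4-LXR reporter so compounds are agonists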
[16] = Late stage assay provider results from the probe development effort to identify selective inhibitors of heat shock protein 90 (HSP90): Absorbance-based cell proliferation assay in MCF7 cells.; type: functional
[17] = target: Heat shock protein HSP 90-alpha (Homo sapiens, UniProt P07900); test: Luminescence-based dose response biochemical high throughput screening assay for inhibitors of the Heat Shock Protein 90 (HSP90). [Related pubchem assays: 1831 (Summary AID.), 1846 (Confirmation screen.), 1789 (Primary screen.)]
[18] = Late stage assay provider results from the probe development effort to identify selective inhibitors of heat shock protein 90 (HSP90): Absorbance-based cell proliferation assay in SKBR3 cells.; type: functional; details: SK-BR-3
[19] = THP-1 cell cytotoxicity, dose response, cytotoxicity control for Vif-APOBEC3G degradation inhibitor project, THP-1 cells (AID 1117359); type: functional; details: Human immunodeficiency virus 1, THP-1
[20] = target: Potassium channel subfamily K member 9 (Homo sapiens, UniProt Q9NPC2); test: TASK3 (KCNK9) channel inhibitors, thallium flux, SAR follow-up, selectivity assay for TASK1 inhibitor project, cell-based, FluxOR thallium flux, concentration-response (AID 652211); type: functional;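 also: potency is for inhibitors of the channel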
[21] = target: Voltage-gated inwardly rectifying potassium channel KCNH2 (Homo sapiens, UniProt Q12809); test: hERG channel inhibition in selectivity testing, SAR follow-up, selectivity assay for TASK1 inhibitor project, FluxOR thallium flux, concentration-response, CHO cells (AID 652194); type: functional, cell-based
[22] = target: Potassium channel subfamily K member 3 (Homo sapiens, UniProt O14649); test: TASK1 (KCNK3) potassium channel inhibitors, SAR follow-up, CHO cells, FluxOR thallium flux (AID 652212); type: functional
[23] = cells; details: HEK293
[24] = target: T3, Fibrinogen beta chain (Homo sapiens, UniProt P02675); test: Fluorescence polarization-based biochemical high throughput dose response assay to identify inhibitors that disrupt the binding of a cyclic peptide (Tn6) to the fibrin proteolytic product D-Dimer and fragment E complex [DD(E )].
[25] = target: T3, Fibrinogen beta chain; test: Fluorescence polarization-based biochemical high throughput dose response assay to identify inhibitors that disrupt the binding of a cyclic peptide (Tn7) to the fibrin proteolytic product D-Dimer and fragment E complex [DD(E )].
[26] = target: Paired box protein Pax-8 (Homo sapiens, UniProt Q06710); test: inhibitors of PAX8-driven TPO luciferase reporter, dose response, RMG-I cells, cherry-pick (AID 687027); type: functional, cell-based;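 also: luciferase reporter driven by Pax8 target thyroperoxidase promoter measured by SteadyGlo luminescence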
[27] = NIH:OVCAR-3 ovarian cancer cell cytotoxicity, dose response, PAX8 inhibitor project, plate reader, dry powder samples (AID 743044); type: functional, cell-based
[28] = A549 cell cytotoxicity, dose response, cytotoxicity control, plate reader, cherry-pick, antagonist series (AID 743412); type: functional, cell-based
[29] = MC4R antagonists, dose response, counter-screen for LGR2 antagonist project, cell-based, plate reader, cherry pick (AID 743444); type: functional;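 also: transfected HEK 293 cells stimulated with alpha-MSH peptide; potency of inhibitors of the alpha-MSH evoked signal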
[30] = HEK293 cell cytotoxicity, dose response, cytotoxicity control, plate reader, cherry-picked samples (AID 743446); type: functional, cell-based
[31] = LGR2 antagonists, dose response, cell-based, HEK293, CRE-luciferase reporter, cherry pick (AID 743342); type: functional
[32] = target: Fatty acid synthase (Homo sapiens, UniProt P49327); test: FAS thioesterase domain inhibitors, SAR follow-up, biochemical, endpoint fluorescence intensity, powder samples (AID 652164); type: functional

N#CC(C#N)=C1NC(N)=C(C#N)C(c2ccccc2)=C1C#N
IC50 [1]: 3.22 µM (active) | IC50 [2]: 100 µM (inactive) | IC50 [3]: > 66.6 µM (inactive) | AC50 [4]: 8.31 µM (active) | IC50 [5]: > 138 µM (inactive) | IC50 [6]: > 128 µM (inactive) | IC50 [7]: 8.41 µM (active) | AC50 [8]: > 100 µM (inactive) | IC50 [9]: 1.92 µM (active) | AC50 [10]: 4.56 µM (active)

Cc1ccccc1-c1noc(-c2ccc(O)cc2)n1
EC50 [11]: 0.122 µM (active) | IC50 [12]: 48.8 µM (inactive) | EC50 [13]: 0.623 µM (active) | IC50 [14]: > 69.5 µM (inactive)

Cc1ccc(-c2csc(NC(=O)/C=C/c3ccco3)c2C(=O)O)cc1
EC50 [15]: > 67.6 µM (inactive)

CCOc1ccc(-c2nc(CN3CCCCC3CCn3cccn3)c(C)o2)cc1 (configuration not stated)
IC50 [16]: 22.2 µM (inactive) | IC50 [17]: 9.63 µM (active) | IC50 [18]: 12.3 µM (inactive) | CC50 [19]: > 40 µM (active)

COc1ccc(CC(=O)NCc2ccccc2-c2ccccc2C(=O)NCc2ccc(F)cc2F)cc1
IC50 [20]: 3.2 µM (active) | IC50 [21]: 36.7 µM (active) | IC50 [22]: 0.115 µM (active)

CNC(=O)c1ccc(NC(=O)c2cccc(C(F)(F)F)c2)cc1
AC50 [23]: 49.8 µM (active)

C#CCNc1ccc(C(=O)OCC)cc1
IC50 [24]: > 83.1 µM (inactive) | IC50 [25]: > 27.7 µM (inactive)

Cc1cccc(S(=O)(=O)N2CC[C@@H]3[C@H](CO)N(C)c4ccc(-c5ccc(C#N)cc5)cc4[C@@H]32)c1
AC50 [26]: 10.1 µM (active) | AC50 [27]: 67.7 µM (active)

COc1ccc(S(=O)(=O)N(C)C[C@@H]2OCCCC[C@H](C)Oc3ccc(NS(=O)(=O)c4ccc(F)cc4)cc3C(=O)N([C@@H](C)CO)C[C@@H]2C)cc1
AC50 [28]: 26 µM (active) | AC50 [29]: 42.7 µM (active) | AC50 [30]: > 52 µM (inactive) | AC50 [31]: 58.8 µM (active)

CCN(CC)S(=O)(=O)c1ccc(-c2csc(NC(=O)C3CCC3)n2)cc1
IC50 [32]: 0.985 µM (active)
